Here are results for three compounds from paper PMC4139341 (PLoS ONE, 2014).

Bounds are passed on as bounds.

One test has as its target AChE (Electrophorus electricus, UniProt O42275). Description: biochemical. The procedure:
The modified method of Ellman et al. was adopted to measure AChE activity. Briefly, 25 µl (0.3 U/ml) AChE from Electric eel fish (Electrophorus electricus) was incubated with and without different concentrations of drugs selected from Molecular Docking studies. The reaction was carried out for 15 min at 25°C. […] Total volume of the reaction was made up to 1 ml by Tris buffer, pH 8.0. ATCI hydrolysis was measured by colored product formation, 5-thio-2-nitrobenzoate anion by reaction between DTNB and thiocholine, a hydrolysis product of ATCI. The formation of the colored product was measured at 405 nm wavelength after 30 min. The background was determined from negative controls (omission of AChE enzyme).
(§1) Lineweaver-Burk double reciprocal plot was plotted in order to determine the Km. […] The Ki was calculated directly from IC50 value using Cheng-Prussoffs classical equation [45]. [drawing 1]
(§2) The reciprocals of reaction rate (1/v) for each inhibitor concentration were plotted against the reciprocals of the substrate concentrations (1/S).

The target in a further test is ADAM17 (Homo sapiens, UniProt P78536). The test can be described thus: biochemical. The conditions noted are these: read-out: inhibition of ADAM 17. Here is the method:
Fluorescence was measured at 328 nm and 420 nm for excitation and emission respectively.

The target of another test is BACE-1 (Homo sapiens, UniProt P56817). Description: biochemical. The procedure:
BACE-1 activity was studied in accordance with the manufacturer's instructions (Sigma). […] Negative control included all the reactants except BACE-1 enzyme. After 2 h, fluorescence emission was measured at 405 nm upon excitation at 320 nm.
as §1, §2

In another test the target is glycation of insulin (Homo sapiens, UniProt P01308). The conditions noted are these: MALDI; 500 µM and 1000 µM protriptyline. The procedure:
(§3) 1.5mg/ml insulin and 0.1 M glucose were incubated with various concentrations of protryptiline in 10 mM PBS, pH 7.0 for 7 days. These samples were further used to study glycation inhibition by MALDI. BSA glycation reaction was performed in a similar manner with 1mg/ml BSA concentration and inhibition was studied by AGE fluorescence and Thioflavin T assay ^1.

Test [1] addresses glycation of BSA (Bovine Serum Albumin) (Bos taurus, UniProt P02769). The conditions noted are these: AGE fluorescence and Thioflavin T fluorescence. The procedure:
as §3

The target of test [2] is T1, Aβ13–22 (Homo sapiens, UniProt P05067). Here is the method:
(§4) Aβ13–22 peptide ([…]), the aggregation prone region of Aβ, was synthesized from Thermo Fisher Scientific. Synthetic Aβ13–22 peptide was dissolved in 10% ammonium hydroxide and sonicated for 5 min. It was then diluted in 10 mM PBS, pH 7.0 to a final concentration of 200 µM.
Inhibition of aggregation/ glycation mediated aggregation of Aβ was detected by static light scattering method using a Perkin-Elmer Luminescence spectrometer LS50B. Both excitation and emission wavelengths were set at 400 nm. Excitation and emission slit width was set to 10 nm and 2.5 nm, respectively. Scattering was recorded for 60 sec.

In test [3] the target is T1, Aβ13–22. Description: biochemical. Here is the method:
as §4
Thioflavin T assay was performed on 7th day of incubation. 50 µl (25 µM) of Aβ13–22 was mixed with 150 µl of Thioflavin T (ThT) stock solution (50 µM ThT in PBS pH 7.0) and placed in 96-well plate (black with flat bottom, Cornings). Fluorescence emission was measured at 460–550 nm upon excitation at 440 nm. To account for background fluorescence, the fluorescence intensity measured from each control solution without Aβ was subtracted from each solution containing Aβ13–22.

Test [4] addresses T1, Aβ13–22. The conditions noted are these: incubated 7 days, protriptyline 0.010 mM; ∼400 nm average without. Here is the method:
as §4

In test [5] the target is AChE activity in neuro2a cells (Mus musculus, UniProt P21836). To be noted: 25 µM and 60 µM protriptyline. Here is the method:
Murine neuro2a neuroblastoma cells were obtained from National Center for Cell Science, Pune, India. The cells were maintained in Dulbecco's modified Eagle's medium (DMEM) and 10% Fetal Bovine Serum (FBS). Cells were maintained at 37°C in humidified air containing 5% CO2 and were grown in monolayer cultures.

Another test concerns the target glycation of Aβ13–22 (Homo sapiens, UniProt P05067). To be noted: excitation 370 nm, emission 440 nm; 0.1 M glucose, 7 days. The procedure: The details of insulin and BSA glycation are described in Method S1. […] These samples were further used to study glycation mediated Aβ aggregation by different assays.
Glycation associated fluorescence of Aβ was measured in amyloid, glycated amyloid treated with or without protryptiline at 370 nm excitation and emission was scanned from 400–550 nm.

In the next test the target is Bovine trypsin (Bos taurus, UniProt P00760). The conditions noted are these: 0.1 and 0.5 mM. Here is the method: Activity of Bovine trypsin was estimated using enzyme-specific chromogenic substrate BApNA [46]. […] Further, 1 ml BApNA was added to the reaction mixture and incubated for 10 min at 37°C. The reaction was terminated by addition of 200 µl of 30% acetic acid and absorbance was measured at 410 nm.
Chain of Bovine trypsin (P00760 24-246): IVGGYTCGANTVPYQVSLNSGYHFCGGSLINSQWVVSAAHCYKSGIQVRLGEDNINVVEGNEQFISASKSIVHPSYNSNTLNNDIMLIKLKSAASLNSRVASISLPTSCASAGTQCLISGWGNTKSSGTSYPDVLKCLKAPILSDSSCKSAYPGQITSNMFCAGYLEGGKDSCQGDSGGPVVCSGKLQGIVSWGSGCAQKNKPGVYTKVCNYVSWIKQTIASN

Chain of BACE-1 (P56817 46-501): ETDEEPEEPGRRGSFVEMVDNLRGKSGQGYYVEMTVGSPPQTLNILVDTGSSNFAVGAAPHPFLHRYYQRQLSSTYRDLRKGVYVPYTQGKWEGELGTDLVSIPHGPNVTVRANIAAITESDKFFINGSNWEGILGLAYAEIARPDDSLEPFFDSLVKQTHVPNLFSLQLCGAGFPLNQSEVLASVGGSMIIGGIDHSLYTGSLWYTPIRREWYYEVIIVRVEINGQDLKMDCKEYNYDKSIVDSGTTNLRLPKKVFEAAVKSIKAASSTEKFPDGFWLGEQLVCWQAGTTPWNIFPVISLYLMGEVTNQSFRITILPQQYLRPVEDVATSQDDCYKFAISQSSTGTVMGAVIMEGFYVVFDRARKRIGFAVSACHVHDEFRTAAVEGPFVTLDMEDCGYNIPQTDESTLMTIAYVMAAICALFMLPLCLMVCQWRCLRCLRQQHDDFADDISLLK
Chain of ADAM17 (P78536 215-824, species assumed): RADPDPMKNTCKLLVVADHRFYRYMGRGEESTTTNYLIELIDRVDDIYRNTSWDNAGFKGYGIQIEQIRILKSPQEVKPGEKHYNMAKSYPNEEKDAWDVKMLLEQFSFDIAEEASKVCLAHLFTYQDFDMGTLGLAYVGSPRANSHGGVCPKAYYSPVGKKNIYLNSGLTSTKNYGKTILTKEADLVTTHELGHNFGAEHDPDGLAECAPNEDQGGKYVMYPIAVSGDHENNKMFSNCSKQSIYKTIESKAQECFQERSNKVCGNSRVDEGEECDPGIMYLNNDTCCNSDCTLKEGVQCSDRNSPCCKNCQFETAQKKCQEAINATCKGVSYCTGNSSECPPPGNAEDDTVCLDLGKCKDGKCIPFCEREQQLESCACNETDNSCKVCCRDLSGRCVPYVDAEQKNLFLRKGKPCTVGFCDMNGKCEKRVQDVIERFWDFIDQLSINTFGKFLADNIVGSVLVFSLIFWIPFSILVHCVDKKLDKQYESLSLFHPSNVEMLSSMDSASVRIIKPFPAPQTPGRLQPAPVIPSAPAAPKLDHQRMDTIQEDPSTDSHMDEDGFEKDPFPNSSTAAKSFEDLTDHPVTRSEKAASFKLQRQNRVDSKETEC
Chain of AChE (O42275 24-633): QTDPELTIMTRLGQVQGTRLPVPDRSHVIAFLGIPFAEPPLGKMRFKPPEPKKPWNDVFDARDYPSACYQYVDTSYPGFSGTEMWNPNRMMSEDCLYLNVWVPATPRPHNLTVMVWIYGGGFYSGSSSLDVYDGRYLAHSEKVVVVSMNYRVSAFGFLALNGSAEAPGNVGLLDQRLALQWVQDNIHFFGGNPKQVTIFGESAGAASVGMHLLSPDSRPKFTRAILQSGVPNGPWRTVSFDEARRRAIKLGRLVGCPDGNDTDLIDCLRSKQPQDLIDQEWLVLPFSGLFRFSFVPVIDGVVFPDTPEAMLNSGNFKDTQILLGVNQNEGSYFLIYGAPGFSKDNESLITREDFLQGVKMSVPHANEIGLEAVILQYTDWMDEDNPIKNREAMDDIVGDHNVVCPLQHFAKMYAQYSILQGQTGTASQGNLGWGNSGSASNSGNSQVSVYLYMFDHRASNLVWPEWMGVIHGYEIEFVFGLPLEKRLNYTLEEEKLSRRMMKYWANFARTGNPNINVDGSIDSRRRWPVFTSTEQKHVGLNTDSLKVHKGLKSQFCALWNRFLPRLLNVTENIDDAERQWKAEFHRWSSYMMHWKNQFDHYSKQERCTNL
Chain of AChE activity in neuro2a cells (P21836 32-614): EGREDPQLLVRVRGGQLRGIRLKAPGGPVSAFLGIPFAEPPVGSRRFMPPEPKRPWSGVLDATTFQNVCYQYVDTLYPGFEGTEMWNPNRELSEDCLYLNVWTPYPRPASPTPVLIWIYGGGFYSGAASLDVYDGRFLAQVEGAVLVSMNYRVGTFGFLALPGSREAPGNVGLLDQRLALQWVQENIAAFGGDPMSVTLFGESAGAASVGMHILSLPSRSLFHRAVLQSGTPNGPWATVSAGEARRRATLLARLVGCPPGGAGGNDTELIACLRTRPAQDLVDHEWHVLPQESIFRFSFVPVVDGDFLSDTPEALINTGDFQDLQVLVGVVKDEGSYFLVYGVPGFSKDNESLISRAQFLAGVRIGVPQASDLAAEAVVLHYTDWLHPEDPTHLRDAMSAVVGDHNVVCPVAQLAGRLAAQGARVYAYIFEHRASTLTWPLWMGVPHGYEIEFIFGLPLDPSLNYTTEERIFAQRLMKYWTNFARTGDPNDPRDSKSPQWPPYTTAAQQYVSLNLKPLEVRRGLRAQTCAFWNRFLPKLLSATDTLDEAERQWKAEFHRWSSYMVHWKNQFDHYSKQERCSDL
Chain of glycation of BSA (Bovine Serum Albumin) (P02769 25-607): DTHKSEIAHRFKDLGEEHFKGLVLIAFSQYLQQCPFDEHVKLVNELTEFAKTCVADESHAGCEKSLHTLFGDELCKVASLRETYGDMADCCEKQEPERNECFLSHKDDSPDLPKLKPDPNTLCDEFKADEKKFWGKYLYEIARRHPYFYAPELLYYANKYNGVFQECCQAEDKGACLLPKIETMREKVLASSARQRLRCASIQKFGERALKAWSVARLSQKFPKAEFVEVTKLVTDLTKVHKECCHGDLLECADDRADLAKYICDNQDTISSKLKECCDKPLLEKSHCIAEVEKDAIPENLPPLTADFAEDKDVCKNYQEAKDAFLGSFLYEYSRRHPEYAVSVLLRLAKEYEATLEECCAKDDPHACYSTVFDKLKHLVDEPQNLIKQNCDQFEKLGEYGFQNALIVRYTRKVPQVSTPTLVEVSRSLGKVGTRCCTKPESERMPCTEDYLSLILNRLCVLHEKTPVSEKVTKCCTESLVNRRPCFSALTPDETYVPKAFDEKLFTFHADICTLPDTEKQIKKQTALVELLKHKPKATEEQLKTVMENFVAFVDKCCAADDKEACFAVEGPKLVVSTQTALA
Chain of glycation of insulin (P01308 25-54 limits assumed): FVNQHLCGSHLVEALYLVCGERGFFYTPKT

Regarding `CNCCC=C1c2ccccc2CCc2ccccc21` [nortriptyline], inhibition on AChE was half-maximal at 135 µM (IC50).
For the compound `CNCCCC1c2ccccc2C=Cc2ccccc21` [protriptyline], at ADAM17, the inhibition at 100 µM is approximately 3% and the inhibition at 500 µM is approximately 25%. In addition, on BACE-1, the Ki is 5 µM. The compound further registered an IC50 against BACE-1 (IC50 for BACE1, summary statement) of less than 150 µM. Also, the IC50 against BACE-1 (IC50 for BACE-1, 2 h at 37°C) was approximately 25 µM. Moreover, on BACE-1 (Lineweaver-Burk plot, 15 µM protriptyline), the “type of BACE-1 inhibition” value is “competitive inhibition”. The glycation of insulin entry on glycation of insulin is “inhibited glycation of insulin”. Further, the “glycation of BSA” value in [1] is “inhibited glycation”. Also, the “light scattering of Aβ aggregates” value at Aβ13–22 [2] is “reduced the light scattering in a concentration dependent manner”. At Aβ13–22 [3], the IC50 was less than 150 µM, the “Thioflavin T fluorescence of Aβ13–22” value is recorded as “Concentration dependent decrease in Thioflavin T fluorescence” and the “lag time of nucleation phase of Aβ13–22 aggregation (ThT fluorescence)” value was approximately 50 h. In addition, the “height of Aβ13–22 aggregates (AFM)” value at Aβ13–22 [4] is approximately 100 nm. For the same compound, the “AChE activity in neuro2a cells” value in [5] is “concentration dependent decrease in AChE activity”. Besides, on glycation of Aβ13–22, the “glycation associated fluorescence of Aβ” value was “reduced by protriptyline in a concentration dependent manner”. On Bovine trypsin, the “inhibition of trypsin activity” value was “not able to inhibit trypsin activity”.
On AChE, `CN(C)CCC=C1c2ccccc2CCc2ccccc21` [amitriptyline] came in with an IC50 of 600 µM.

What is called IC50 is the concentration that gives 50% inhibition. A lower IC50 goes with higher potency. By inhibition is commonly meant the drop in the measured response relative to a control, in per cent. The term Ki denotes a measure of affinity in units of concentration, obtained from inhibition or displacement. Read a low Ki as tighter binding.
